Columns and labels:
Format in all cases: cell-based, human
[1] = test system: SW480 cells; assay: Trypan blue assay, SW480; conditions: SW480, 72 h; for Cell Number × 10^5 / Viability (%): compound at IC50 concentration
Protocol: (§1) In order to estimate the tumor and normal cell population density and their viability after treatment with compounds 1–3, 8, and 9, the trypan blue dye exclusion assay was performed. The live cell number of all cancerous cells incubated for 72 h with the studied thioureas was considerably lower in comparison with the controls (Table 2; Figure S1A). The highest reduction in cell amount was denoted for both colon SW480 and SW620 cells treated with the dichlorophenyl derivative 2, and it accounted for 93%. […] Similarly, a noticeable decline in both colon cancer cell populations was observed after treatment with the ortho-substituted compound 8. The number of live cells equaled 12% and 18%, respectively, as compared to controls. This thiourea also led to a reduction of PC3 cells of 38%, and leukemia K-562 cell lines of 27%. The number of SW620 and PC3 cells decreased by 72% and 63% in the presence of para-substituted compound 9. However, the reducing influence of this thiourea on the number of other cancerous cells was at the level of 21–32%. […] A significant effect on the other studied pathological cells was also noticed and accounted for 32–46%. Furthermore, the derivative 3 reduced the amount of live cancer cells by 32–59%, of which its decreasing impact on colon cancer cells was the greatest.
(§2) The live cell count was assessed by the trypan blue exclusion dye assay using an automated cell counter (CountessTM Invitrogen, Waltham, MA, USA). Untreated cells were used as the control.

[2] = test system: SW480 cells; assay: MTT assay, SW480; conditions: 50% growth inhibition
Protocol: (§3) As a first step in assessing their cytotoxic properties, all thioureas of the series were assayed against four human carcinoma cell lines, such as SW480 (primary colon cancer), SW620 (metastatic colon cancer), PC3 (metastatic prostate cancer), and K-562 (chronic myelogenous leukemia), as well as against the normal cell line HaCaT (immortalized human keratinocytes). Table 1 lists the compound concentrations that produced 50% of growth inhibition (IC50, μM), generated by the MTT method, in comparison with two commonly used chemotherapeutic agents, doxorubicin and cisplatin.
(§4) The human primary (SW480), metastatic (SW620) colon cancer, metastatic prostate cancer (PC3), chronic myelogenous leukemia (K-562), and human immortal keratinocyte (HaCaT) cell lines were purchased from the American Type Culture Collection (ATCC, Rockville, MD, USA). The cells were cultured in medium according to protocols (MEM for SW480 and SW620, RPMI 1640 for PC3 and K-562, and DMEM for HaCaT cells), supplemented with 10% FBS, penicillin (100 U/mL) and streptomycin (100 μg/mL), and cultured in a 37 °C/5% CO2 humidified incubator. The cells were cultured until appropriate confluence was achieved (80–90%). Next, they were harvested by treatment with 0.25% trypsin (Gibco Life Technologies, Waltham, MA, USA) excluding the non-adherent K-562 cell line and used for studies.
(§5) Cells without the studied compounds in medium were used as a control.
(§6) The cell viability was assessed by determination of MTT salt [3-(4,5-dimethylthiazol-2-yl)-2,5-diphenyltetrazoliumbromide] conversion by mitochondrial dehydrogenase. The MTT assay was performed as previously described. Alternatively, non-adherent leukemic cells were centrifuged in a microplate centrifuge (400× g, 5 min) during the collection stages. Experiments were repeated three times. Cell viability was presented as a percent of MTT reduction in the treated cells versus the control cells. The number of viable cells cultured without the studied compounds was assumed as 100%. A decreased relative MTT level indicated decreased cell viability. Thiourea compounds with the highest cytotoxic potential assessed by MTT determination (with the lowest IC50) were chosen for subsequent assessments of cytotoxicity mechanisms.

[3] = test system: IL-6 level, SW480 cells; assay: IL-6 level ELISA, SW480; conditions: SW480, 72 h; for reduction (inhibition) of IL-6 level: IC50 concentration, vs control; for IL-6 Concentration: compound at IC50 concentration, ELISA
Protocol: Because of the low secretion of IL-6 by leukemic cells compared to solid tumors, and in addition to the lack of IL-6 receptors in K-562 cells, studies of the effect of derivatives 1–3, 8, and 9 on the inhibition of IL-6 release were carried out on primary and secondary solid tumor cells (SW480, SW620, and PC3). A remarkable inhibition of the IL-6 level was denoted for both colon cancer cell lines. Compound 2, identified as the strongest inhibitor, reduced the interleukin level by 54% (in SW480 cells) and 63% (SW620 cells). A significant effect was also observed in these cells for its structural isomer 3 (39% and 23% of inhibition, respectively). Additionally, compound 3 considerably affected the IL-6 level produced by PC3 cells, and reduced it by 33%. Similarly, the treatment with derivative 1 was effective for both colon cancer cells. In its presence, IL-6 release decreased by 28–36%, as compared to controls. For monosubstituted derivatives 8 and 9, the observed IL-6-reducing influence was weaker. They both inhibited IL-6 secretion in SW480 and SW620 cell lines by 25–32%. In contrast to compound 9, thiourea 8 additionally diminished the cytokine level in PC3 cells by 26%.
The IL-6 concentration in all studied cancer cells and normal HaCaT cell lines was measured by an ELISA kit (Diaclon SAS Besancon CEDEX, Besançon, France). […] IL-6 in cell culture supernatant was measured using the enzyme-linked immunosorbent assay in accordance with the manufacturer’s protocol.

[4] = Annexin V-FITC/PI flow cytometry, HaCaT; design: viability at 72 h: concentration or dose not given beside the values; conditions: human, HaCaT cells (normal keratinocytes), representative dot plot, Figure 4E, read-out: LL quadrant, viable cells
Protocol: To estimate the mechanism of anticancer activity of the selected compounds 1–3, 8, and 9, their effect on both early and late apoptosis was evaluated by flow cytometry analysis. […] Additionally, visible late apoptosis-inducing properties in these cell lines were denoted for the compound 9 (47% ± 3.0%), which was twice as strong towards the colon tumor cells mentioned above. The apoptotic properties of analogs 3 and 8 in K-562 cells varied from 30% ± 1.6% to 33% ± 2.3%. […] Whereas the apoptosis-generating influence of derivatives 2 and 3 on normal keratinocytes was higher (29% and 23%), their selectivity measured by MTT methods is favorable. The obtained results are in agreement with the IC50 values assigned to pathological cancer cell lines. The cells were cultured and harvested under the conditions described in Section 3.2.1. […] The effect of these compounds on the process of early and late apoptosis and necrosis was determined as described previously by dual staining with Annexin V:FITC and propidium iodide, according to the manufacturer’s protocol (Becton Dickinson). The cells that were Annexin V:FITC positive and PI negative were identified as early apoptotic, and Annexin V:FITC and PI positive as late apoptotic or necrotic.

[5] = test system: HaCaT cells; assay: MTT assay, HaCaT normal cells; conditions: Homo sapiens, HaCaT, 72 h
Protocol: as §3, §4, §5, §6

[6] = test system: PC3 cells; assay: Trypan blue assay, PC3; conditions: PC3, 72 h; for reduction in live cell number: IC50 concentration, vs control; for Cell Number × 10^5 / Viability (%): compound at IC50 concentration
Protocol: as §1, §2

[7] = test system: K-562 cells; assay: Trypan blue assay, K-562; conditions: K-562, 72 h; for reduction in live cell number: IC50 concentration, vs control; for Cell Number × 10^5 / Viability (%): compound at IC50 concentration
Protocol: as §1, §2

| Structure (SMILES) | reduction in live cell number ([1]; IC50 concentration, vs control) | Cell Number × 10^5 [1] | Viability (%) [1] | IC50 ([2]; Homo sapiens, SW480, 72 h) | reduction (inhibition) of IL-6 level [3] | IL-6 Concentration [3] | viability at 72 h [4] | IC50 [5] | reduction in live cell number [6] | Cell Number × 10^5 [6] | Viability (%) [6] | reduction in live cell number [7] | Cell Number × 10^5 [7] | Viability (%) [7] | IC50 ([2]; 72 h) | number of live cells as compared to controls ([1]; IC50 concentration) |
| --- | --- | --- | --- | --- | --- | --- | --- | --- | --- | --- | --- | --- | --- | --- | --- | --- |
| FC(F)(F)c1cccc(NC(=S)Nc2ccc(Cl)c(Cl)c2)c1 [Compound 2, 1-(3,4-dichlorophenyl)-3-[3-(trifluoromethyl)phenyl]thiourea] | 93% | 0.3 ± 0.35 × 10^5 | 45 ± 2.40% | 9 ± 1.42 µM | 54% | 3.6 ± 0.02 pg/mL | 57.6% | 24.7 ± 0.05 µM | 69% | 2.4 ± 0.16 × 10^5 | 93 ± 1.40% | 66% | 1.0 ± 0.21 × 10^5 | 55 ± 1.03% | – | – |
| FC(F)(F)c1cccc(NC(S)=Nc2ccc(Cl)cc2Cl)c1 [Compound 3, 1-(2,4-dichlorophenyl)-3-[3-(trifluoromethyl)phenyl]thiourea] | – | 1.5 ± 0.10 × 10^5 | 90 ± 1.30% | 30.1 ± 3.11 µM | 39% | 4.8 ± 0.04 pg/mL | 65.7% | 52.1 ± 0.95 µM | – | 1.8 ± 0.18 × 10^5 | 58 ± 1.20% | – | 3.0 ± 0.27 × 10^5 | 85 ± 1.20% | – | – |
| Fc1ccc(NC(=S)Nc2cccc(C(F)(F)F)c2)cc1Cl [Compound 1, 1-(3-chloro-4-fluorophenyl)-3-[3-(trifluoromethyl)phenyl]thiourea] | – | 2.0 ± 0.30 × 10^5 | 69 ± 1.30% | 12.7 to 15.6 µM | – | 5.7 ± 0.01 pg/mL | 78.2% | 43.6 ± 4.22 µM | – | 2.3 ± 0.15 × 10^5 | 93 ± 1.50% | – | 1.8 ± 0.24 × 10^5 | 93 ± 2.05% | 12.7 ± 1.53 µM | – |
| FC(F)(F)c1ccc(NC(=S)Nc2cccc(C(F)(F)F)c2)cc1 [Compound 8, 1-[3-(trifluoromethyl)phenyl]-3-[4-(trifluoromethyl)phenyl]thiourea] | – | 0.4 ± 0.15 × 10^5 | 90 ± 2.30% | 8.9 ± 1.14 µM | – | 5.3 ± 0.01 pg/mL | 70.1% | 41.3 ± 0.17 µM | 38% | 2.1 ± 0.12 × 10^5 | 82 ± 1.10% | 27% | 3.2 ± 0.14 × 10^5 | 88 ± 1.10% | – | 12% |
| FC(F)(F)c1cccc(NC(=S)Nc2ccc(Cl)cc2)c1 [Compound 9, 1-(4-chlorophenyl)-3-[3-(trifluoromethyl)phenyl]thiourea] | – | 2.5 ± 0.12 × 10^5 | 72 ± 2.25% | 38.1 ± 4.38 µM | – | 5.5 ± 0.02 pg/mL | 79.5% | 71.5 ± 3.08 µM | 63% | 1.2 ± 0.15 × 10^5 | 73 ± 1.99% | – | 3.5 ± 0.22 × 10^5 | 90 ± 2.40% | – | – |
